# In patent US8592367B2, “Nodule specific medicago peptides having antimicrobial activity and pharmaceutical compositions containing the same” (priority 2009, dated 2013):
# Read-outs that look alike come from different tables or passages of the source.
# Legend:
# [1] = system: Pseudomonas aeruginosa; test: PI staining, broad spectrum activity; format: cell-based; conditions: 50 μg/ml
# [2] = system: Pseudomonas aeruginosa; test: CFU determination, broad spectrum activity; format: cell-based; conditions: 50 μg/ml, strain resistant to conventional antibiotics
# [3] = system: Pseudomonas syringae pv tomato DC3000; test: PI staining, broad spectrum activity; format: cell-based; conditions: 50 μg/ml
# [4] = system: Pseudomonas syringae pv tomato DC3000; test: CFU determination, broad spectrum activity; format: cell-based; conditions: 50 μg/ml, Pseudomonas syringae pv tomato DC3000, untreated 10^7
# [5] = system: Xanthomonas 2880; test: PI staining, broad spectrum activity; format: cell-based; conditions: 50 μg/ml
# [6] = system: Xanthomonas 2880; test: CFU determination, broad spectrum activity; format: cell-based; conditions: 50 μg/ml, Xanthomonas 2880, untreated 10^7
# [7] = system: Clavibacter michigense; test: PI staining, broad spectrum activity; format: cell-based; conditions: 50 μg/ml
# [8] = system: Clavibacter michigense; test: CFU determination, broad spectrum activity; format: cell-based; conditions: 50 μg/ml, untreated 10^9
# [9] = system: Curtobacterium, flaccumfaciens; test: PI staining, broad spectrum activity; format: cell-based; conditions: 50 μg/ml
# [10] = system: Curtobacterium, flaccumfaciens; test: CFU determination, broad spectrum activity; format: cell-based; conditions: 50 μg/ml, untreated 10^9
# [11] = system: Bacillus subtilis; test: PI staining, broad spectrum activity; format: cell-based; conditions: 50 μg/ml
# [12] = system: Bacillus subtilis; test: CFU determination, broad spectrum activity; format: cell-based; conditions: 50 μg/ml, untreated 10^6
# [13] = system: Staphylococcus aureus; test: PI staining, broad spectrum activity; format: cell-based; conditions: 50 μg/ml
# [14] = system: Staphylococcus aureus; test: CFU determination, broad spectrum activity; format: cell-based; conditions: 50 μg/ml, untreated 10^6
# [15] = system: Aspergillus flavus; test: Antifungal activity in 96-well microtiter plates; format: cell-based; set-up: key: +++: high sensitivity, no hyphal growth; ++: medium sensitivity; +: low sensitivity; −: no effect; conditions: 24 h
# [16] = system: Aspergillus niger; test: Antifungal activity in 96-well microtiter plates; format: cell-based; set-up: key: +++: high sensitivity, no hyphal growth; ++: medium sensitivity; +: low sensitivity; −: no effect; conditions: 24 h
# [17] = system: Candida albicans; test: Antifungal activity in 96-well microtiter plates; format: cell-based; set-up: key: +++: high sensitivity, no hyphal growth; ++: medium sensitivity; +: low sensitivity; −: no effect; conditions: 24 h
# [18] = system: Candida crusei; test: Antifungal activity in 96-well microtiter plates; format: cell-based; set-up: key: +++: high sensitivity, no hyphal growth; ++: medium sensitivity; +: low sensitivity; −: no effect; conditions: 24 h
# [19] = system: Candida parapsilosis; test: Antifungal activity in 96-well microtiter plates; format: cell-based; set-up: key: +++: high sensitivity, no hyphal growth; ++: medium sensitivity; +: low sensitivity; −: no effect; conditions: 24 h
# [20] = system: Rhizopus stolonifer var. stolonifer; test: Antifungal activity in 96-well microtiter plates; format: cell-based; set-up: key: +++: high sensitivity, no hyphal growth; ++: medium sensitivity; +: low sensitivity; −: no effect; conditions: 24 h
# [21] = system: Fusarium graminearum; format: cell-based; set-up: key: +++: high sensitivity, no hyphal growth; ++: medium sensitivity; +: low sensitivity; −: no effect; conditions: 24 h
# [22] = system: Fusarium graminearum; format: cell-based; conditions: 50 μg/ml, same at 24 h and 48 h, FIGS. 11C and 11F
# [23] = system: Sinorhizobium meliloti AK631; test: PI staining of Sinorhizobium meliloti; conditions: 50 μg/ml, Sinorhizobium meliloti (AK631)
# [24] = system: Sinorhizobium meliloti AK631; test: CFU determination of Sinorhizobium meliloti; conditions: for CFU % / CFU (colony/ml): 1 hr; for CFU determination (colony formation): 3 hours, 2-3×10^6 bacteria, FIG. 2B; for CFU: Sinorhizobium meliloti (AK631), untreated 10^7; for eradication of the bacteria: from the low dose of 20 μg/ml
substance,measurement,setting,value
NCR247: cationic NCR peptide (RNGCIVDPRCPYQQCRRPLYCRRR; Peptide derived from Medicago truncatula),PI,[1],PI: 15%
same,CFU (FIG. 10),[2],completely eradicated
same,PI,[3],PI: 60%
same,CFU,[4],CFU: 0
same,PI,[5],PI: 48%
same,CFU,[6],CFU: 0
same,PI,[7],PI: 50%
same,CFU,[8],CFU: 0
same,PI,[9],PI: 27%
same,CFU,[10],CFU: 0
same,PI,[11],PI: 18%
same,CFU,[12],CFU: 10^6
same,PI,[13],PI: 30%
same,CFU,[14],CFU: 10^5
same,"Fungal (hyphal) growth, sensitivity",[15]; 25 μg/ml,+++
same,"Fungal (hyphal) growth, sensitivity",[15]; 50 μg/ml,+++
same,"Fungal (hyphal) growth, sensitivity",[15]; 100 μg/ml,+++
same,"Fungal (hyphal) growth, sensitivity",[16]; 25 μg/ml,+++
same,"Fungal (hyphal) growth, sensitivity",[16]; 50 μg/ml,+++
same,"Fungal (hyphal) growth, sensitivity",[16]; 100 μg/ml,+++
same,"Fungal (hyphal) growth, sensitivity",[17]; 25 μg/ml,+++
same,"Fungal (hyphal) growth, sensitivity",[17]; 50 μg/ml,+++
same,"Fungal (hyphal) growth, sensitivity",[17]; 100 μg/ml,+++
same,"Fungal (hyphal) growth, sensitivity",[18]; 25 μg/ml,+++
same,"Fungal (hyphal) growth, sensitivity",[18]; 50 μg/ml,+++
same,"Fungal (hyphal) growth, sensitivity",[18]; 100 μg/ml,+++
same,"Fungal (hyphal) growth, sensitivity",[19]; 25 μg/ml,+++
same,"Fungal (hyphal) growth, sensitivity",[19]; 50 μg/ml,+++
same,"Fungal (hyphal) growth, sensitivity",[19]; 100 μg/ml,+++
same,"Fungal (hyphal) growth, sensitivity",[20]; 25 μg/ml,+++
same,"Fungal (hyphal) growth, sensitivity",[20]; 50 μg/ml,+++
same,"Fungal (hyphal) growth, sensitivity",[20]; 100 μg/ml,+++
same,"Fungal (hyphal) growth, sensitivity",[21]; 25 μg/ml,++
same,"Fungal (hyphal) growth, sensitivity",[21]; 50 μg/ml,++
same,"Fungal (hyphal) growth, sensitivity",[21]; 100 μg/ml,++
same,spores and hyphae development,[22],inhibits the spores and hyphae development
same,PI,[23],PI: 70%
same,CFU %,[24]; 20 μg/ml,0%
same,CFU (colony/ml),[24]; 20 μg/ml,0 colony/ml
same,CFU %,[24]; 50 μg/ml,0%
same,CFU (colony/ml),[24]; 50 μg/ml,0 colony/ml
same,CFU determination (colony formation),[24]; 50 μg/ml,none formed colony
same,CFU,[24]; 50 μg/ml,CFU: 0
same,eradication of the bacteria,[24],able to eradicate the bacteria in less than an hour
NCR224: anionic NCR peptide (KDLPFNICEKDEDCLEFCAHDKVAKCMLNICFCF; Peptide derived from Medicago truncatula),CFU %,[24]; 20 μg/ml,130%
same,CFU (colony/ml),[24]; 20 μg/ml,52900000 colony/ml
same,CFU %,[24]; 50 μg/ml,48%
same,CFU (colony/ml),[24]; 50 μg/ml,19600000 colony/ml
same,CFU determination (colony formation),[24]; 50 μg/ml,reduced growth capacity
NCR057: cationic NCR peptide (RPVSCKDHYDCRRKVKIVGCIFPQEKPMCINSMCTCIREIVP; Peptide derived from Medicago truncatula),PI,[3],PI: 50%
same,CFU,[4],CFU: 10^6
same,PI,[5],PI: 65%
same,PI,[7],PI: 70%
same,PI,[9],PI: 60%
same,CFU,[10],CFU: 0
same,CFU,[12],CFU: 10^6
same,PI,[13],PI: 47%
same,CFU,[14],CFU: 10^6
same,PI,[23],PI: 35%
same,CFU %,[24]; 20 μg/ml,148%
same,CFU (colony/ml),[24]; 20 μg/ml,9800000 colony/ml
same,CFU %,[24]; 50 μg/ml,68%
same,CFU (colony/ml),[24]; 50 μg/ml,4500000 colony/ml
same,CFU determination (colony formation),[24]; 50 μg/ml,reduced growth capacity
same,CFU,[24]; 50 μg/ml,CFU: 10^6
same,eradication of the bacteria,[24],able to eradicate the bacteria in less than an hour
